The values below come from PMC6104605, “Discovery of new chromen-4-one derivatives as telomerase inhibitors through regulating expression of dyskerin” (Journal of Enzyme Inhibition and Medicinal Chemistry, 2018).

The subject of assay [1] is human cervical cancer cell Hela. Nature of the assay: MTT anticancer assay, Hela. It is filed as cell-based. The note with it: MTT, 48 h exposure, mean ± SD, read-out: IC50 Hela. The method, then: The MTT was purchased from Sigma. Cell Cycle Analysis Kit and Apoptosis Analysis Kit were purchased from Bestbio (China). Mitochondrial membrane potential assay kit with JC-1 was purchased from Beyotime (China). All the materials were used as received without further purification unless noted specifically. The cell culture was maintained on DMEM medium (Hyclone, US) supplemented with 10% fetal bovine serum (Sijiqing, China), 100 U/mL penicillin and 100 µg/mL streptomycin in 25-cm^2 culture flasks at 37 °C humidified atmosphere with 5% CO2. Drugs were dissolved in DMSO and filtered through 0.22-µm pore-size filter units before addition to cell line appropriate media. When tumor cells were grown to log phase, diluting to 5 × 10^4 cells mL^−1 with the complete medium, 100 µL of the obtained cell suspension was added to each well of 96-well culture plates. The subsequent incubation was performed at 37 °C, 5% CO2 atmosphere for 48 h before subjecting to anti-proliferation assessment. After 48-h exposure period, 20 µL of PBS containing 5 mg·mL^−1 of MTT was added to each well. After 4 h, the medium was replaced by 150 µL DMSO to dissolve the purple formazan crystals produced. […] The data represented the mean of three experiments in triplicate and were expressed as means ± SD.
Background: Tetrazolium assays rely on reduction of a dye to a coloured formazan, in cell work by metabolically active cells.

For assay [2], the system named is human liver cancer cell HepG2. Nature of the assay: MTT anticancer assay, HepG2. It is filed as cell-based. The note with it: 48 h exposure, mean ± SD, dash = footnote d 'None'. The method, then: The MTT was purchased from Sigma. Cell Cycle Analysis Kit and Apoptosis Analysis Kit were purchased from Bestbio (China). Mitochondrial membrane potential assay kit with JC-1 was purchased from Beyotime (China). All the materials were used as received without further purification unless noted specifically. The cell culture was maintained on DMEM medium (Hyclone, US) supplemented with 10% fetal bovine serum (Sijiqing, China), 100 U/mL penicillin and 100 µg/mL streptomycin in 25-cm^2 culture flasks at 37 °C humidified atmosphere with 5% CO2. Drugs were dissolved in DMSO and filtered through 0.22-µm pore-size filter units before addition to cell line appropriate media. When tumor cells were grown to log phase, diluting to 5 × 10^4 cells mL^−1 with the complete medium, 100 µL of the obtained cell suspension was added to each well of 96-well culture plates. The subsequent incubation was performed at 37 °C, 5% CO2 atmosphere for 48 h before subjecting to anti-proliferation assessment. After 48-h exposure period, 20 µL of PBS containing 5 mg·mL^−1 of MTT was added to each well. After 4 h, the medium was replaced by 150 µL DMSO to dissolve the purple formazan crystals produced. The absorbance at 492 nm of each well was measured on an ELISA plate reader. The data represented the mean of three experiments in triplicate and were expressed as means ± SD. The IC50 value was defined as the concentration at which 50% of the cells could survive. The following human tumor cell lines were used in the assay: human gastric cancer cells SGC-7901, human liver cancer cell SMMC-7721 and HepG2, human cervical cancer cell Hela and human glioma cell U87.

In assay [3] the test system is PARP. Kind of assay: Western blot, PARP. The note with it: SGC-7901, 1, 2 and 4 μM, 48 h. Format: cell-based, human. The method, then:
An equivalent volume of 5 × SDS-sample buffer was added to cell lysates and boiled for 10 min. The supernatants were subjected to electrophoresis on SDS-PAGE gels and transferred to PVDF membrane by using a Bio-Rad apparatus. Membranes were blocked for 3 h at room temperature in TBST containing 5% non-fat dried milk and probed overnight at 4 °C with antibodies. CyclinD1 (abcam, ab134175, 1:10000), CDC25A (abcam, ab156574, 1:1000), CDC25C (abcam, ab32051, 1:1000), bcl-2 (abcam, ab32124,1:1000), bax (abcam, ab32503, 1:1000), PARP (abcam, ab191217, 1:1000), γH2AX (abcam, ab81299, 1:5000), dyskerin (abcam, ab156877, 1:1000), NHP2 (abcam, ab180498, 1:1000), NOP10 (abcam, ab133726, 1:1000) antibody was performed with rabbit primary antibody. Otherwise, β-actin (ZSGB-BIO, 1:1000) detection was performed with mouse primary antibody which was served as internal controls. Protein bands of β-actin was visualised using peroxidase-labeled goat anti-mouse and others were visualised using peroxidase-labeled goat anti-rabbit secondary antibody (1:5000 dilution, 1 h, room temperature), and the protein expression signals were detected by the BeyoECL Plus (Beyotime).
For orientation: Immunoblotting shows a protein as a band on a membrane.

Assay [4] addresses T1, telomerase (Homo sapiens, UniProt O14746).
T1 construct: endogenous in cells; host or cells: SGC-7901
Nature of the assay: Telomerase activity assay (TRAP-PCR-ELISA). Format: biochemical. The note with it: SGC-7901 cells extracts, 24-h treatment, mean ± SD. The method, then:
Inhibit of telomerase activity was tested using the TRAP-PCR-ELISA assay. In detail, the SGC-7901 cells were firstly maintained in DMEM medium (GIBCO, New York) supplemented with 10% fetal bovineserum (GIBCO, NewYork), streptomycin (0.1 mg/mL) and penicillin (100 IU/mL) at 37 °C in a humidified atmosphere containing 5% CO2. After trypsinisation, 5 × 10^4 cultured cells in logarithmic growth were seeded into T25 flasks (Corning, New York) and cultured to allow to adherence. The cells were then incubated with Staurosporine (Santa Cruz, Santa Cruz) and the drugs with a series of concentration as 60, 20, 6.67, 2.22, 0.74, 0.25 and 0.082 l g/mL, respectively. After 24-h treatment, the cells were harvested by cell scraper orderly following by washed once with PBS. The cells were lysed in 150 µL RIPA cell lysis buffer (Santa Cruz, Santa Cruz) and incubated on ice for 30 min. The cellular supernatants were obtained via centrifugation at 12,000 g for 20 min at 4 °C and stored at −80 °C. The TRAP-PCR-ELISA assay was performed using a telomerase detection kit (Roche, Basel, Switzerland) according to the manufacturer’s protocol. In brief, 2 µL of cell extracts were mixed with 48 µL TRAP reaction mixtures. PCR was then initiated at 94 °C, 120 s for predenaturation and performed using 35 cycles each consisting of 94 °C for 30 s, 50 °C for 30 s, 72 °C for 90 s. Then 20 µL of PCR products were hybridised to a digoxigenin (DIG)-labeled telomeric repeat specific detection probe. And the PCR products were immobilised via the biotin-labeled primer to a streptavidin-coated microtiter plate subsequently. The immobilised DNA fragment were detected with a peroxidase-conjugated anti-DIG antibody and visualised following addition of the stop regent. The microtitre plate was assessed on TECAN Infinite M200 microplate reader (Mannedorf, Switzerland) at a wavelength of 490 nm, and the final value were presented as mean ± SD.
(In general: In an ELISA, binding on a coated surface is turned into a signal by an enzyme label.)

The IC50 is the point on the concentration scale where inhibition reaches its midpoint.

SMILES strings stand for the structures.

T1 sequence (O14746 whole entry): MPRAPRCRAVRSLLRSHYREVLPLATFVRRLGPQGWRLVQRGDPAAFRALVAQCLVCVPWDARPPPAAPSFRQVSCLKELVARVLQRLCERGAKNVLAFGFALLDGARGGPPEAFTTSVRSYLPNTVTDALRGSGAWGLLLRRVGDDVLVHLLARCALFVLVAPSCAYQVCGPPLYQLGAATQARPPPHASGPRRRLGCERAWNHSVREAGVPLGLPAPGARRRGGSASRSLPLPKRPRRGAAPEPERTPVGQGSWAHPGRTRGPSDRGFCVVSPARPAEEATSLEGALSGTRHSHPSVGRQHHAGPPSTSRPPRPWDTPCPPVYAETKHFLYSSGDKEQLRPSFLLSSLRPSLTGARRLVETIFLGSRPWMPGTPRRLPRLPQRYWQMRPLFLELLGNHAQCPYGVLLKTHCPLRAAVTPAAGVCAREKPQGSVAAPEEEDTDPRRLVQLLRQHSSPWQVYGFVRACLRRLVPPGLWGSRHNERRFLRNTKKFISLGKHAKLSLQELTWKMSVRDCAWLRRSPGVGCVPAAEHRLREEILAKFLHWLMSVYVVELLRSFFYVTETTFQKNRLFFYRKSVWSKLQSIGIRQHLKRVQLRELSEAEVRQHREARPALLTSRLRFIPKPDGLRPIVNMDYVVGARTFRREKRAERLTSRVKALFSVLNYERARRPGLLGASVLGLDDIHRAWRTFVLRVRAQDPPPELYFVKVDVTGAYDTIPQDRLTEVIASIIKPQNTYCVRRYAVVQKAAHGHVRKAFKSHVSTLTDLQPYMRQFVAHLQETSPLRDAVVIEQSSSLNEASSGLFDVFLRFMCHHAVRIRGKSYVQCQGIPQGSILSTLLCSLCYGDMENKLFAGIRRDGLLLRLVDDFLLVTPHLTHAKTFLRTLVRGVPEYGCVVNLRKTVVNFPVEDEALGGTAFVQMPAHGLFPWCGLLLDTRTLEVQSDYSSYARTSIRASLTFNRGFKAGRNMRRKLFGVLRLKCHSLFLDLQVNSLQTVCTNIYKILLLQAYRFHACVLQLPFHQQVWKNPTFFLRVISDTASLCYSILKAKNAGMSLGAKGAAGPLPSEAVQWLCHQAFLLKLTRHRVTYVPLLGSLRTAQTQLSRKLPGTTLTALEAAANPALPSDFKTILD
T1 sequence (O60832 whole entry partner): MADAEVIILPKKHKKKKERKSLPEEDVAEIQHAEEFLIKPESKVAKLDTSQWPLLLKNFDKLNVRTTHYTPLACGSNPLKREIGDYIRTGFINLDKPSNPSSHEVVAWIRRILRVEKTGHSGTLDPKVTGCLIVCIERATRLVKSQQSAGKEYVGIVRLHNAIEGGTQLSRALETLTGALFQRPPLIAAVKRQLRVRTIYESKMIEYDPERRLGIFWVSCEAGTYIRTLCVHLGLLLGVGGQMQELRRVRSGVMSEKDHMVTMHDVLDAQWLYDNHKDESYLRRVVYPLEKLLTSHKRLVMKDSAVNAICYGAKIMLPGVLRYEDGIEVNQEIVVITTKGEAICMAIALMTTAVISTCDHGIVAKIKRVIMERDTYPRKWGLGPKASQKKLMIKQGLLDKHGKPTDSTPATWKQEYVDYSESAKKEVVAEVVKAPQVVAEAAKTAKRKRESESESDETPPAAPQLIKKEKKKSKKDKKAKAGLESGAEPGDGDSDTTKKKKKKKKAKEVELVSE
T1 sequence (Q9NX24 whole entry partner): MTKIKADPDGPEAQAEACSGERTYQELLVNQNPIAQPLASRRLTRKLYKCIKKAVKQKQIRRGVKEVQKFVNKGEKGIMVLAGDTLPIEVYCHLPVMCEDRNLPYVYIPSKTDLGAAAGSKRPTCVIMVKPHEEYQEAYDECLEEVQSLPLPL
T1 sequence (Q9NPE3 whole entry partner): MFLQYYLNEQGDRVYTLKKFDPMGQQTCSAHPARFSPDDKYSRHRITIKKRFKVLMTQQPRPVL
T1 sequence (Q9NY12 whole entry partner): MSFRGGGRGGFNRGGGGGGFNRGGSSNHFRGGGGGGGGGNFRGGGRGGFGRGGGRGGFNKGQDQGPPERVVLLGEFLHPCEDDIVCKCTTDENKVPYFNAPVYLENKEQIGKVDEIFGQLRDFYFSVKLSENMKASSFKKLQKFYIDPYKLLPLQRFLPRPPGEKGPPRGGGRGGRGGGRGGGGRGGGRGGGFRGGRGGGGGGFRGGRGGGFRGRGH

With `COc1cc(OC)c2c(=O)c(OCCCCN3CCN(C(=O)c4ccncc4)CC3)c(-c3cc(OC)c(OC)c(OC)c3)oc2c1` [Compound 5i, 3-(4-(4-isonicotinoylpiperazin-1-yl)butoxy)-5,7-dimethoxy-2-(3,4,5-trimethoxyphenyl)-4H-chromen-4-one], the IC50 in assay [1] stood at 1020 ± 210 nM; in assay [2], 4120 ± 510 nM; in assay [4], 890 ± 170 nM. The “PARP (western blot)” value in assay [3] is reported as “reduced”.
